Results published in the NIST ThermoML archive (doi:10.1016/j.jct.2009.07.022).
Where “and” joins values, the source holds several entries; their conditions need not be identical. Equal values may be shown once. Numbers after ± are expanded uncertainties.

What was measured:
[1] = molar enthalpy of transition or fusion; conditions: 298.15 K; Crystal; Clausius-Clapeyron Eq with Heat Capacity
[2] = Crystal, Calculated from knudsen effusion weight loss

c1ccc(-c2cccc(-c3ccccc3)c2-c2ccccc2)cc1 [1,2,3-triphenylbenzene]
Conditions | molar enthalpy of transition or fusion [kcal/mol]
[1] | 32.1 ± 0.526

[2]
Conditions | vapor or sublimation pressure
373.15 K | 0.0001 ± 5e-06 kPa and 9.85e-05 ± 4.9e-06 kPa
375.03 K | 0.000124 ± 6e-06 kPa and 0.00012 ± 6e-06 kPa
377.27 K | 0.00016 ± 8e-06 kPa and 0.000158 ± 8e-06 kPa
379.15 K | 0.0002 ± 1e-05 kPa and 0.000199 ± 1e-05 kPa and 0.000195 ± 1e-05 kPa
381.02 K | 0.000244 ± 1.2e-05 kPa and 0.000247 ± 1.2e-05 kPa and 0.000237 ± 1.2e-05 kPa
383.27 K | 0.000316 ± 1.6e-05 kPa and 0.000305 ± 1.5e-05 kPa and 0.000301 ± 1.5e-05 kPa
385.27 K | 0.000384 ± 1.9e-05 kPa and 0.000369 ± 1.8e-05 kPa and 0.000365 ± 1.8e-05 kPa
387.12 K | 0.000458 ± 2.3e-05 kPa and 0.00046 ± 2.3e-05 kPa
389.05 K | 0.000548 ± 2.7e-05 kPa and 0.000555 ± 2.8e-05 kPa and 0.000543 ± 2.7e-05 kPa
391.28 K | 0.000733 ± 3.7e-05 kPa and 0.00073 ± 3.7e-05 kPa and 0.000715 ± 3.6e-05 kPa
393.1 K | 0.000871 ± 4.4e-05 kPa and 0.000865 ± 4.3e-05 kPa and 0.000872 ± 4.4e-05 kPa
394.98 K | 0.001033 ± 0.0001 kPa and 0.001062 ± 0.00011 kPa and 0.001027 ± 0.0001 kPa
